Series [1] has as its target T1, SGLT1 (Homo sapiens, UniProt P13866).
T1 construct: expressed in transfected cells
T1 sequence (P13866 1-664): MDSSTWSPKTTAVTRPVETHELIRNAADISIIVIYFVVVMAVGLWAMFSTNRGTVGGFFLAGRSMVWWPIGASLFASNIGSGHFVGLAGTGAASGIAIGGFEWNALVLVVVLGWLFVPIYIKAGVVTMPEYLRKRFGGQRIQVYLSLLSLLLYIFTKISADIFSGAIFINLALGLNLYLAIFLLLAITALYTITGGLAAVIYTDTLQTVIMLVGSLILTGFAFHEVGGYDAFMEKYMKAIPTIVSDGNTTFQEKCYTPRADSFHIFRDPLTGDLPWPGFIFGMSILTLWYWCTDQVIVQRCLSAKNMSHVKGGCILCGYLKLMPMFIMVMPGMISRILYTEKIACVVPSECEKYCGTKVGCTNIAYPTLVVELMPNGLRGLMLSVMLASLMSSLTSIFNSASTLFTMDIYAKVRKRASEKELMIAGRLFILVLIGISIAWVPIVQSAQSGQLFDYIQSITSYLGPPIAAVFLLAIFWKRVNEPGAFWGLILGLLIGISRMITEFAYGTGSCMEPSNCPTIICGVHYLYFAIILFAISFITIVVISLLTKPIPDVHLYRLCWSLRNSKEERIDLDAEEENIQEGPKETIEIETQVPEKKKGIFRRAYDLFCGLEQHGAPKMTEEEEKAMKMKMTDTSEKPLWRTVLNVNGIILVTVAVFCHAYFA
Put plainly: Inhibition of [14C]AMG uptake in SGLT1-overexpressing CHO cells. The conditions noted are these: IC50 (nM) SGLT1 mean ± SD (n = 3), 10 μM [14C]AMG, 2 h, 37° C. The series is classed as cell-based. As for the experimental part:
An SGLT1-overexpressing cell line (CHO-SGLT1 stable cells) and mock cells (CHO-mock cells) were cultured to reach 80% confluency, and then the cells were seeded in 96-well plates at 1×10^5 cells/well.
After 24 hours, the medium was removed, and a pre-incubation buffer [10 mM hydroxyethylpiperazine ethane sulfonic acid (HEPES), 5 mM Tris, 140 mM choline chloride, 2 mM KCl, 1 mM CaCl2), 1 mM MgCl2, pH 7.4] was added, and the cells were cultured for one hour.
After one hour, the pre-incubation buffer was removed, and an incubation buffer [10 mM HEPES, 5 mM Tris, 140 mM NaCl, 2 mM KCl, 1 mM CaCl2), 1 mM MgCl2, pH 7.4] containing 10 μM [^14C] methyl α-D-glucopyranoside (AMG), a substrate of SGLT1, and inhibitory evaluation substances at various concentrations was added and allowed to react in a thermo micro mixer at 37° C. for two hours.
After a preset time, the cells were washed twice with 200 μL of ice-cold washing buffer [10 mM HEPES, 5 mM Tris, 140 mM choline chloride, 2 mM KCl, 1 mM CaCl2), 1 mM MgCl2, 100 mM AMG, pH 7.4].
After removing the medium, 40 μL of 10% sodium dodecyl sulfate (SDS) solution was added to lyse the cells, and then the samples were transferred to a measurement plate of a liquid scintillation counter, and 150 μL of OptiPhase Supermix®, an isotope measurement cocktail solution, was added, and the cells were incubated overnight to ensure that the cell solution was homogeneously mixed with the cocktail solution.
[^14C]AMG in the samples was measured using the liquid scintillation counter.
At this time, the inhibitory effect Sigmoid Emax model was used, and the WinNonlin program (ver. 2.0) was utilized. All data values were expressed as the mean±standard deviation (SD) of three independent experiments.

In series [2] the test system is STZ-induced type 1 diabetic rats. Description: Oral glucose tolerance test in type 1 diabetic rat model. The format is in vivo. The conditions noted are these: for Blood glucose level in OGTT: glucose 2 g/kg oral. As for the experimental part:
(§1) STZ was administered to Sprague Dawley (SD) male 5-week-old rats on day 0 (G2 to G7, excluding G1), and non-fasting blood glucose levels were measured on day 3 to determine whether type 1 diabetes was induced. On day 7, the experimental substances were administered to each group, and blood and urine samples were collected at 6 h, 24 h, 48 h, and 72 h to measure non-fasting blood glucose levels. On day 14 of the experiment, the experimental animals were fasted for 16 h, and on day 15, 2 g/kg of glucose solution was orally administered after the experimental substances were administered. Thereafter, blood glucose levels were measured at 15, 30, 60, 90, and 120 minutes after glucose administration. After blood collection, the serum was separated, and the IL-6 inflammatory response was evaluated using an interleukin-6 (IL-6) enzyme-linked immunosorbent assay (ELISA) kit.

Series [3] relates to interleukin-6 (IL-6). Description: Serum IL-6 ELISA in type 1 diabetic rat model. To be noted: STZ rats, 6, 24, 48, 72 hours after administration. The format is in vivo. As to the method:
as §1
(In general: In an ELISA, binding on a coated surface is turned into a signal by an enzyme label.)

The test system of series [4] is STZ-induced type 1 diabetic rats. Description: Non-fasting blood glucose in type 1 diabetic rat model. The format is in vivo. To be noted: 1 mg/kg single intravenous dose. As to the method:
as §1

The subject of series [5] is normal rats. Description: Urinary glucose excretion (UGE) after intravenous administration. The format is in vivo, rat. To be noted: 1 mg/kg intravenous, 6-72 hours. As to the method: Enavogliflozin, M1, or M2 was intravenously administered once to normal rats, and antidiabetic efficacy was evaluated.
To perform the oral glucose tolerance test (OGTT) and examine urinary glucose excretion (UGE), enavogliflozin, M1, or M2 was administered intravenously to male 8-week-old normal rats at a dose of 1 mg/kg, and then a glucose solution (2 g/kg) was administered to load blood sugar. The blood sugar level was measured before glucose solution administration and at 5, 10, 15, 20, 30, 40, 60, 90, and 120 minutes after the administration to evaluate oral glucose tolerance. In addition, the UGE was evaluated by measuring the amount of glucose excreted in the urine 6, 24, 48, and 72 hours after the administration of the glucose solution.

A short description of series [6]: Half-life of M2 (rapid dissipation). The conditions noted are these: in vivo.

SMILES strings stand for the structures. “And” between values parts separate entries of the source, which are not always exact repeats. Identical values can stand only once. “Also recorded” adds a separate entry of the source.

By IC50 is commonly meant the concentration needed to halve the response being measured. Lower therefore signals greater potency. The half-life is the time needed for the level to fall by half in the phase considered. A lower half-life goes with rapid decline.

As for `OC[C@H]1O[C@@H](c2cc(Cc3ccc(C4CC4)cc3)c(Cl)c3c2CCO3)[C@H](O)[C@@H](O)[C@@H]1O` [Enavogliflozin, (2S,3R,4R,5S,6R)-2-(7-chloro-6 (4-cyclopropylbenzyl)-2,3-dihydrobenzofuran-4-yl)-6-(hydroxymethyl)tetrahydro-2H-pyran-3,4,5-triol], in series [1], the IC50 is 861 ± 59.4 nM. The “Blood glucose level in OGTT” value in series [2] (STZ rats, 1 mg/kg) is “lowering of the blood glucose level was observed”. In addition, the “Change in IL-6 level” value in series [3] is listed as “slight decrease”.
Consider `OC[C@H]1O[C@@H](c2cc(Cc3ccc(C4CC4)cc3)c(Cl)c3c2CC(O)O3)[C@H](O)[C@@H](O)[C@@H]1O` (stereo partly drawn) [M1, (2S,3R,4R,5S,6R)-2-(7-chloro-6-(4-cyclopropylbenzyl)-2-hydroxy-2,3-dihydrobenzofuran-4-yl)-6-(hydroxymethyl)tetrahydro-2H-pyran-3,4,5-triol], for which the half-inhibitory concentration (IC50) in series [1] is ~28.4 nM and 28.4 nM. Further, in series [2] (STZ rats, 1 mg/kg), the “AUC of blood glucose in OGTT” value is listed as “best oral glucose tolerance improvement effect”; the “Blood glucose level in OGTT” value was “fastest and strongest blood glucose lowering effect”. For the same compound, the “Dose dependence of glucose tolerance in OGTT” value in series [2] (STZ rats, 0.01, 0.1, 1 mg/kg) is “dose-dependent improvement in glucose tolerance”. Besides, the “Change in IL-6 level” value in series [3] is “significant decrease in all dose groups”. In addition, in series [4], the “Non-fasting blood sugar level” value is on record as “lowest blood sugar level at 48 hours after administration”. Besides, in series [5], the “Urinary glucose excretion (UGE)” value was “UGE was observed from six hours after intravenous administration; also recorded: similar”.
In series [1], `OC[C@H]1O[C@@H](c2cc(Cc3ccc(C4(O)CC4)cc3)c(Cl)c3c2CCO3)[C@H](O)[C@@H](O)[C@@H]1O` [M2, (2S,3R,4R,5S,6R)-2-(7-chloro-6-(4-(1-hydroxycyclopropyl)benzyl)-2,3-dihydrobenzofuran-4-yl)-6-(hydroxymethyl)tetrahydro-2H-pyran-3,4,5-triol] displayed a 50% inhibitory concentration (IC50) of 1220 ± 165 nM. For the same compound, the “Urinary glucose excretion (UGE)” value in series [5] is “UGE was observed from six hours after intravenous administration; also recorded: less glucose was excreted than enavogliflozin and M1 for up to 24 hours”. In addition, in series [6], the half-life was 48 min.

The record behind these values is US20260124170A1, “PHARMACEUTICAL COMPOSITION COMPRISING METABOLITE OF ENAVOGLIFLOZIN, AND USE THEREOF” (DAEWOONG PHARMACEUTICAL CO., LTD., priority 2022, published 2026).
